Assay results taken from patent US10065972B2, “Bicyclic or tricyclic heterocyclic compound” (MITSUBISHI TANABE PHARMA CORPORATION, priority 2014, dated 2018).

The molecules below were run against human recombinant KAT-II (Homo sapiens (Human), UniProt Q8N5Z0) (assay: KAT-II inhibitory test). Conditions: 3.0 μmol/L kynurenine, 37° C., 1 hr, pH 8.0; kynurenic acid quantified by HPLC.
Sequence of human recombinant KAT-II (Q8N5Z0 30-425): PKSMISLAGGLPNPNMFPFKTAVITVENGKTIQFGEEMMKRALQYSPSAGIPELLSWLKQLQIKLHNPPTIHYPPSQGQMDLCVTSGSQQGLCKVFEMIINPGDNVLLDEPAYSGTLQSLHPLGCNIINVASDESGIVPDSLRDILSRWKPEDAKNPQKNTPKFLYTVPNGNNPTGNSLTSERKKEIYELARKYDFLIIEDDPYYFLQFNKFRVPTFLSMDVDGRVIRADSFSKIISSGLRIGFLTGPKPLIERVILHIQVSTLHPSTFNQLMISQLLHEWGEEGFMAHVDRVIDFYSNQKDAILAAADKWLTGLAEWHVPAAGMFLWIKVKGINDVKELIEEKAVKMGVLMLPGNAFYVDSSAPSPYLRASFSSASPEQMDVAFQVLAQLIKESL
Type: biochemical
Outline: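 Kynurenic acid formation was measured by HPLC fluorescence (354 nm excitation, 460 nm emission) against an external standard curve. The substrate was 3.0 μmol/L kynurenine with 10 μmol/L pyridoxal phosphate, at pH 8.0 Tris-acetate, 37 °C for 1 hr, using 2.0 ng/μL amylose-purified N-terminal His/MBP-tagged recombinant enzyme. Duplicate measurements were made per concentration.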
For Cc1nc2sc(N3CCC[C@@H]3C(=O)NCc3ccccc3)nn2c(=O)c1-c1ccccc1 [Example 648, (R)-N-benzyl-1-(7-methyl-5-oxo-6-phenyl-5H-[1,3,4]thiadiazolo[3,2-a]pyrimidin-2-yl)pyrrolidine-2-carboxamide], the IC50 was 0.046 µM. CC(C)c1nc2sc(N(C)[C@H](C)C(=O)NCc3ccccc3)nc2c(=O)[nH]1 [Example 486, (R)-N-benzyl-2-{N′-[5-(propan-2-yl)-7-oxo-6,7-dihydro[1,3]thiazolo[5,4-d]pyrimidin-2-yl]-N′-methylamino}propionamide] gave an IC50 of 0.015 µM. O=C(NCc1ccccc1)[C@H]1CCCN1c1nc2c(=O)[nH]c(-c3c(F)cccc3F)nc2s1 [Example 583, (R)-N-benzyl-1-[5-(2,6-difluorophenyl)-7-oxo-6,7-dihydro[1,3]thiazolo[5,4-d]pyrimidin-2-yl]pyrrolidine-2-carboxamide] gave an IC50 of 0.009 µM. With CCc1nc2sc([C@H]3CCCN3C(=O)NC3(c4ccccc4)CC3)nc2c(=O)n1C [Example 12, (R)-2-(5-ethyl-6-methyl-7-oxo-6,7-dihydro[1,3]thiazolo[5,4-d]pyrimidin-2-yl)-N-(1-phenylcyclopropyl)pyrrolidine-1-carboxamide] the IC50 was 0.13 µM. For C[C@H](c1nc2sc(N3CCC[C@@H]3C(=O)NCc3ccccc3)nc2c(=O)n1C)N(C)C [Example 376, (R)-N-benzyl-1-{5-[(R)-1-(N′,N′-dimethylamino)ethyl]-6-methyl-7-oxo-6,7-dihydro[1,3]thiazolo[5,4-d]pyrimidin-2-yl}pyrrolidine-2-carboxamide], the IC50 was 0.014 µM. In the case of O=C(NCc1ccccc1)[C@H]1CCCN1c1nc2c(=O)n(C3CCOCC3)c(C(F)(F)F)nc2s1 [Example 244, (R)-N-benzyl-1-[7-oxo-6-(tetrahydro-2H-pyran-4-yl)-5-trifluoromethyl-6,7-dihydro-[1,3]thiazolo[5,4-d]pyrimidin-2-yl]pyrrolidine-2-carboxamide], the IC50 is reported as 0.011 µM. In the case of CC(C)c1nc2ccc(N3CCC[C@@H]3C(=O)NCc3ccccc3)nc2c(=O)[nH]1 [Example 712, (R)-N-benzyl-1-[4-oxo-2-(propan-2-yl)-3,4-dihydropyrido[3,2-d]pyrimidin-6-yl]pyrrolidine-2-carboxamide], the IC50 is reported as 0.062 µM. CCn1c(C(F)F)nc2sc(N3CCC[C@@H]3C(=O)N[C@@H](c3ccccc3)C(F)(F)F)nc2c1=O [Example 301, (R)-1-(5-difluoromethyl-6-ethyl-7-oxo-6,7-dihydro-[1,3]thiazolo[5,4-d]pyrimidin-2-yl)pyrrolidine-N-((S)-2,2,2-trifluoro-1-phenylethyl)-2-carboxamide] showed an IC50 of 2.6 µM. O=C(Oc1ccccc1)N1CCC[C@@H]1c1nn2c(=O)c3cc(F)ccc3nc2s1 [Example 155, (R)-2-(7-fluoro-5-oxo-5H-[1,3,4]thiadiazolo[2,3-b]quinazolin-2-yl)pyrrolidine-1-carboxylic acid phenyl ester] was tested, and the IC50 was 0.32 µM. With Cc1noc(-c2nc3sc(N4CCC[C@@H]4C(=O)NCc4ccccc4)nc3c(=O)[nH]2)n1 [Example 585, (R)-N-benzyl-1-[5-(3-methyl-[1,2,4]oxadiazol-5-yl)-7-oxo-6,7-dihydro[1,3]thiazolo[5,4-d]pyrimidin-2-yl]pyrrolidine-2-carboxamide] the IC50 was 0.012 µM. CCc1nc2sc([C@H]3CCCN3C(=O)NC(C)(C)c3ccccc3)nc2c(=O)n1C [Example 15, (R)-2-(5-ethyl-6-methyl-7-oxo-6,7-dihydro[1,3]thiazolo[5,4-d]pyrimidin-2-yl)-N-(1-methyl-1-phenylethyl)pyrrolidine-1-carboxamide] was tested, and the IC50 was 1.1 µM. Work on Cc1cc(=O)n2nc(N3CCC[C@@H]3C(=O)NC(C)(C)c3ccccc3)sc2n1 [Example 636, (R)-1-(7-methyl-5-oxo-5H-[1,3,4]thiadiazolo[3,2-a]pyrimidin-2-yl)-N-(1-methyl-1-phenylethyl)pyrrolidine-2-carboxamide] yielded an IC50 of 1.5 µM. CCc1nc2sc([C@H]3CCCN3C(=O)N[C@H](C)c3ccccc3)nc2c(=O)n1C [Example 17, (R)-2-(5-ethyl-6-methyl-7-oxo-6,7-dihydro[1,3]thiazolo[5,4-d]pyrimidin-2-yl)-N-((R)-1-phenylethyl)pyrrolidine-1-carboxamide] showed an IC50 of 1.6 µM. Cn1c(C2(F)CC2)nc2sc(N3CCC[C@@H]3C(=O)NCc3ccccc3)nc2c1=O [Example 268, (R)-N-benzyl-1-[5-(1-fluorocyclopropyl)-6-methyl-7-oxo-6,7-dihydro[1,3]thiazolo[5,4-d]pyrimidin-2-yl]pyrrolidine-2-carboxamide] showed an IC50 of 0.0088 µM. With CC(C)c1cc(=O)n2nc([C@H]3CCCN3C(=O)Nc3ccccc3)sc2n1 [Example 160, (R)-2-[5-oxo-7-(propan-2-yl)-5H-[1,3,4]thiadiazolo[3,2-a]pyrimidin-2-yl]-N-phenylpyrrolidine-1-carboxamide] the IC50 was 5.2 µM. CC(=O)c1nc2sc(N3CCC[C@@H]3C(=O)NCc3ccccc3)nc2c(=O)n1C [Example 411, (R)-1-(5-acetyl-6-methyl-7-oxo-6,7-dihydro[1,3]thiazolo[5,4-d]pyrimidin-2-yl)-N-benzylpyrrolidine-2-carboxamide] showed an IC50 of 0.015 µM. CC(C)c1cc(=O)n2nc([C@H]3CCCN3C(=O)OCc3ccccc3)sc2n1 [Example 144, (R)-2-[5-oxo-7-(propan-2-yl)-5H-[1,3,4]thiadiazolo[3,2-a]pyrimidin-2-yl]pyrrolidine-1-carboxylic acid benzyl ester] was tested, and the IC50 was 0.72 µM. CCn1c(C(F)F)nc2sc(N3CCC[C@@H]3C(=O)NCc3cc(C)on3)nc2c1=O [Example 311, (R)-1-(5-difluoromethyl-6-ethyl-7-oxo-6,7-dihydro-[1,3]thiazolo[5,4-d]pyrimidin-2-yl)-N-[(5-methyl-isoxazol-3-yl)methyl]pyrrolidine-2-carboxamide] gave an IC50 of 0.34 µM. In the case of Cc1nc2ccc(N3CCC[C@@H]3C(=O)NCc3ccccc3)nc2c(=O)n1CC(F)(F)F [Example 706, (R)-N-benzyl-1-[2-methyl-4-oxo-3-(2,2,2-trifluoroethyl)-3,4-dihydropyrido[3,2-d]pyrimidin-6-yl]pyrrolidine-2-carboxamide], the IC50 is reported as 0.17 µM. O=C(NCc1ccccc1)[C@H]1CCCN1c1nn2c(=O)cc(-c3ccccc3)nc2s1 [Example 638, (R)-N-benzyl-1-(5-oxo-7-phenyl-5H-[1,3,4]thiadiazolo[3,2-a]pyrimidin-2-yl)pyrrolidine-2-carboxamide] was tested, and the IC50 was 0.029 µM. CCc1nc2sc([C@H]3CCCN3C(=O)N[C@@H]3CCc4ccccc43)nc2c(=O)n1C [Example 13, (R)-5-ethyl-2-{1-[((R)-indan-1-yl)aminocarbonyl]pyrrolidin-2-yl}-6-methyl-6,7-dihydro[1,3]thiazolo[5,4-d]pyrimidin-7-one] was tested, and the IC50 was 0.56 µM. For CN1CCC(Cn2c(C(F)(F)F)nc3sc(N4CCC[C@@H]4C(=O)NCc4ccccc4)nc3c2=O)CC1 [Example 366, (R)-N-benzyl-1-{6-[(1-methylpiperidin-4-yl)methyl]-7-oxo-5-trifluoromethyl-6,7-dihydro[1,3]thiazolo[5,4-d]pyrimidin-2-yl}pyrrolidine-2-carboxamide], the IC50 was 0.15 µM. O=C(NCc1ccccc1)[C@H]1CCCN1c1nc2c(=O)[nH]c(-c3ccccc3F)c(Cl)c2s1 [Example 624, (R)-N-benzyl-1-[7-chloro-6-(2-fluorophenyl)-4-oxo-4,5-dihydro[1,3]thiazolo[4,5-c]pyridin-2-yl]pyrrolidine-2-carboxamide] was tested, and the IC50 was 0.015 µM.
